Laboratory results published in ChEMBL document CHEMBL1201862, “PubChem BioAssay data set” (2004).
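Growth conditions: 96-well plates. Treatment: test compound, 48 hours, 5 concentrations. Analysis: linear interpolation between bracketing concentrations; unreached endpoints set to highest concentration. At the GI50, growth is halved.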 The source made the active and inactive calls. Cut-off read from the data, not from the text of the source: active = GI50 up to about 1.1 µM and inactive = higher.

Key:
Assay in all cases: NCI tumour cell line growth inhibition, 48 h
HCT-15 = system: HCT-15
MOLT-4 = system: MOLT-4
OVCAR-4 = system: OVCAR-4
NCI-H460 = system: NCI-H460
UO-31 = system: UO-31
UACC-62 = system: UACC-62
SNB-19 = system: SNB-19
KM12 = system: KM12
M14 = system: M14
Malme-3M = system: Malme-3M
UACC-257 = system: UACC-257
MDA-MB-435 = system: MDA-MB-435
COLO 205 = system: COLO 205
A549 = system: A549
786-0 = system: 786-0
SN12C = system: SN12C
SK-OV-3 = system: SK-OV-3
U-251 = system: U-251
LOX IMVI = system: LOX IMVI
OVCAR-8 = system: OVCAR-8
CCRF-CEM = system: CCRF-CEM
IGROV-1 = system: IGROV-1
RPMI-8226 = system: RPMI-8226
HCC 2998 = system: HCC 2998
HCT-116 = system: HCT-116
MDA-N = system: MDA-N
HOP-92 = system: HOP-92
SF-539 = system: SF-539
DU-145 = system: DU-145
RXF 393 = system: RXF 393
CAKI-1 = system: CAKI-1
A498 = system: A498
NCI/ADR-RES = system: NCI/ADR-RES
SR = system: SR
TK-10 = system: TK-10
SW-620 = system: SW-620
HOP-62 = system: HOP-62
SF-295 = system: SF-295
PC-3 = system: PC-3
SF-268 = system: SF-268
HL-60 = system: HL-60
SNB-75 = system: SNB-75
NCI-H23 = system: NCI-H23
ACHN = system: ACHN
MDA-MB-231 = system: MDA-MB-231
K562 = system: K562
SK-MEL-5 = system: SK-MEL-5
MCF7 = system: MCF7
OVCAR-3 = system: OVCAR-3
EKVX = system: EKVX
SK-MEL-28 = system: SK-MEL-28
NCI-H522 = system: NCI-H522
HT-29 = system: HT-29
NCI-H226 = system: NCI-H226
OVCAR-5 = system: OVCAR-5

Compound: CO[C@@H]1/C=C\C=C(/C)C(=O)NC2=CC(=O)C(NCCN(C)C)=C(C[C@@H](C)C[C@@H](OC)[C@@H](O)[C@H](C)/C=C(\C)[C@H]1OC(N)=O)C2=O
- GI50 (HCT-15): 0.345 µM
- GI50 (MOLT-4): 0.0166 µM (active)
- GI50 (OVCAR-4): 0.841 µM (active)
- GI50 (NCI-H460): < 0.01 µM (active)
- GI50 (UO-31): 0.652 µM (active)
- GI50 (UACC-62): < 0.01 µM (active)
- GI50 (SNB-19): < 0.0236 µM (active)
- GI50 (KM12): < 0.01 µM (active)
- GI50 (M14): < 0.01 µM (active)
- GI50 (Malme-3M): < 0.01 µM (active)
- GI50 (UACC-257): 0.0121 µM (active)
- GI50 (MDA-MB-435): < 0.01 µM (active)
- GI50 (COLO 205): < 0.01 µM (active)
- GI50 (A549): < 0.0117 µM (active)
- GI50 (786-0): < 0.0204 µM (active)
- GI50 (SN12C): < 0.01 µM (active)
- GI50 (SK-OV-3): 0.0121 µM (active)
- GI50 (U-251): < 0.01 µM (active)
- GI50 (LOX IMVI): < 0.01 µM (active)
- GI50 (OVCAR-8): < 0.0191 µM (active)
- GI50 (CCRF-CEM): < 0.0144 µM (active)
- GI50 (IGROV-1): < 0.01 µM (active)
- GI50 (RPMI-8226): 0.121 µM (active)
- GI50 (HCC 2998): < 0.0118 µM (active)
- GI50 (HCT-116): < 0.0132 µM (active)
- GI50 (MDA-N): < 0.01 µM (active)

Compound: CSc1ncnc2c1ncn2CCC(=O)O
- GI50 (HOP-92): > 100 µM (inactive)
- GI50 (SF-539): > 100 µM (inactive)
- GI50 (MOLT-4): > 100 µM (inactive)
- GI50 (DU-145): > 100 µM (inactive)
- GI50 (OVCAR-4): > 100 µM (inactive)
- GI50 (RXF 393): > 100 µM (inactive)
- GI50 (CAKI-1): > 100 µM (inactive)
- GI50 (NCI-H460): > 100 µM (inactive)
- GI50 (A498): > 100 µM (inactive)
- GI50 (NCI/ADR-RES): > 100 µM (inactive)
- GI50 (SR): > 100 µM (inactive)
- GI50 (UO-31): > 100 µM (inactive)
- GI50 (TK-10): > 100 µM (inactive)
- GI50 (SW-620): > 100 µM (inactive)
- GI50 (HOP-62): > 100 µM (inactive)
- GI50 (UACC-62): > 100 µM (inactive)
- GI50 (SF-295): > 100 µM (inactive)
- GI50 (PC-3): > 100 µM (inactive)
- GI50 (SNB-19): > 100 µM (inactive)
- GI50 (SF-268): > 100 µM (inactive)
- GI50 (KM12): > 100 µM (inactive)
- GI50 (M14): > 100 µM (inactive)
- GI50 (Malme-3M): > 100 µM (inactive)
- GI50 (UACC-257): > 100 µM (inactive)
- GI50 (HL-60): > 100 µM (inactive)
- GI50 (SNB-75): > 100 µM (inactive)
- GI50 (NCI-H23): > 100 µM (inactive)
- GI50 (MDA-MB-435): > 100 µM (inactive)
- GI50 (COLO 205): > 100 µM (inactive)
- GI50 (A549): > 100 µM (inactive)
- GI50 (786-0): > 100 µM (inactive)
- GI50 (ACHN): > 100 µM (inactive)
- GI50 (MDA-MB-231): > 100 µM (inactive)
- GI50 (K562): > 100 µM (inactive)
- GI50 (SN12C): > 100 µM (inactive)
- GI50 (SK-MEL-5): > 100 µM (inactive)
- GI50 (MCF7): > 100 µM (inactive)
- GI50 (OVCAR-3): > 100 µM (inactive)
- GI50 (EKVX): > 100 µM (inactive)
- GI50 (SK-MEL-28): > 100 µM (inactive)
- GI50 (SK-OV-3): > 100 µM (inactive)
- GI50 (LOX IMVI): > 100 µM (inactive)
- GI50 (NCI-H522): > 100 µM (inactive)
- GI50 (OVCAR-8): > 100 µM (inactive)
- GI50 (CCRF-CEM): > 100 µM (inactive)
- GI50 (HT-29): > 100 µM (inactive)
- GI50 (NCI-H226): > 100 µM (inactive)
- GI50 (IGROV-1): > 100 µM (inactive)
- GI50 (RPMI-8226): > 100 µM (inactive)
- GI50 (HCT-116): > 100 µM (inactive)
- GI50 (OVCAR-5): > 100 µM (inactive)
- GI50 (MDA-N): > 100 µM (inactive)

Compound: COC(C)(C)C1(O)CC[C@@H](C)CC1=O (stereo partly specified)
- GI50 (HCT-15): > 100 µM
- GI50 (SF-539): > 100 µM (inactive)
- GI50 (DU-145): > 100 µM (inactive)
- GI50 (OVCAR-4): > 100 µM (inactive)
- GI50 (A498): > 100 µM (inactive)
- GI50 (TK-10): > 100 µM (inactive)
- GI50 (SW-620): > 100 µM (inactive)
- GI50 (HOP-62): > 100 µM (inactive)
- GI50 (UACC-62): > 100 µM (inactive)
- GI50 (SF-295): > 100 µM (inactive)
- GI50 (SF-268): > 100 µM (inactive)
- GI50 (KM12): > 100 µM (inactive)
- GI50 (M14): > 100 µM (inactive)
- GI50 (Malme-3M): > 100 µM (inactive)
- GI50 (UACC-257): > 100 µM (inactive)
- GI50 (SNB-75): > 100 µM (inactive)
- GI50 (NCI-H23): > 100 µM (inactive)
- GI50 (MDA-MB-435): > 100 µM (inactive)
- GI50 (A549): > 100 µM (inactive)
- GI50 (ACHN): > 100 µM (inactive)
- GI50 (SN12C): > 100 µM (inactive)
- GI50 (MCF7): > 100 µM (inactive)
- GI50 (EKVX): > 100 µM (inactive)
- GI50 (SK-MEL-28): > 100 µM (inactive)
- GI50 (NCI-H522): > 100 µM (inactive)
- GI50 (RPMI-8226): > 100 µM (inactive)
- GI50 (HCT-116): > 100 µM (inactive)
- GI50 (OVCAR-5): > 100 µM (inactive)
